In patent US8129398B2 (priority 2008, dated 2012):

target: T1, HIV-integrase (Human immunodeficiency virus type 1 group M subtype B, UniProt P12497); experiment: HIV-Integrase Inhibition Activity (SPA bead integration assay with P33 labeled target DNA); format: biochemical; details: recombinant integrase, class symbols; read-out: in vitro activity
T1 construct: Recombinant integrase (0.26 ng) was incubated with the beads
Protocol: HIV-Integrase Inhibition Activity. To evaluate in-vitro activity against HIV-integrase, 5 pmole of biotin labeled substrate DNA was bound to 100 μg of Streptavidin coated PVT SPA beads (Amersham Pharmacia Biotech). Recombinant integrase (0.26 ng) was incubated with the beads for 90 min at 37° C. Unbound enzyme was removed by washing the complex followed by addition of inhibitors and 0.1 fmol of P33 labeled target DNA. The reaction was stopped by adding EDTA to a final concentration of 10 mM. Samples were counted in TopCountNXT (Packard) and the CPM was used as a measure of integration. The reaction condition was as described in A. Engelman and R. Craigie, J. Virol. 69, 5908-5911 (1995). The sequences of substrate and target DNA were described in Nucleic Acid Research 22, 1121-1122 (1994). Activity equal to A refers to a compound having IC50=<10 nM while B and C denote compounds having […] and IC50>100 nM respectively.

`CN(C)C(=O)C(=O)NC12CCC(CC1)Cn1c2nc(C(=O)NCc2ccc(F)c(C3CC3)c2)c(O)c1=O` [Example 128, N′-(2-((3-Cyclopropyl-4-fluorobenzyl)carbamoyl)-3-hydroxy-4-oxo-6,7,8,9-tetrahydro-7,10-ethanopyrimido[1,2-a]azepin-10(4H)-yl)-N,N-dimethylethanediamide] and `COCCN(C)C(=O)C(=O)NC12CCC(CC1)Cn1c2nc(C(=O)NCc2ccc(F)c(Cl)c2)c(O)c1=O` [Example 135, N′-(2-((3-Chloro-4-fluorobenzyl)carbamoyl)-3-hydroxy-4-oxo-6,7,8,9-tetrahydro-7,11-ethanopyrimido[1,2-a]azepin-10(4H)-yl)-N-(2-methoxyethyl)-N-methylethanediamide] cannot be ordered by IC50: under 10 nM for the first, under 10 nM for the second.

First: O=C(NCc1ccc(F)cc1)c1nc2n(c(=O)c1O)CC1CCC2(NC(=O)C2CCOC2)CC1 (centres unmarked) [Example 238, 7,10-Ethanopyrimido[1,2-a]azepine-2-carboxamide, N-[(4-fluorophenyl)methyl]-4,6,7,8,9,10-hexahydro-3-hydroxy-4-oxo-10-[[(tetrahydro-3-furanyl)carbonyl]amino]-]
Second: CC(=O)N1CCCC1C(=O)NC12CCC(CC1)Cn1c2nc(C(=O)NCc2ccc(F)cc2)c(O)c1=O (stereo in doubt) [Example 253, 7,10-Ethanopyrimido[1,2-a]azepine-2-carboxamide, 10-[[[(2R)-1-acetyl-2-pyrrolidinyl]carbonyl]amino]-N-[(4-fluorophenyl)methyl]-4,6,7,8,9,10-hexahydro-3-hydroxy-4-oxo-]
The IC50 of the first is lower: under 10 nM for the first, 10 to 100 nM for the second. The first is the more potent here.

`CC(=O)Nc1cncc(C(=O)NC23CCC(CC2)Cn2c3nc(C(=O)NCc3ccc(F)cc3)c(O)c2=O)c1` [Example 321, 7,10-Ethanopyrimido[1,2-a]azepine-2-carboxamide, 10-[[[5-(acetylamino)-3-pyridinyl]carbonyl]amino]-N-[(4-fluorophenyl)methyl]-4,6,7,8,9,10-hexahydro-3-hydroxy-4-oxo-] and `CN(CCF)C(=O)C(=O)NC12CCC(CC1)Cn1c2nc(C(=O)NCc2ccc(F)cc2)c(O)c1=O` [Example 52, N′-(2-((4-Fluorobenzyl)carbamoyl)-3-hydroxy-4-oxo-6,7,8,9-tetrahydro-7,10-ethanopyrimido[1,2-a]azepin-10(4H)-yl)-N-(2-fluoroethyl)-N-methylethanediamide] cannot be ordered by IC50: under 10 nM for the first, under 10 nM for the second.

`Cc1nnc(C(=O)NC23CCC(CC2)n2c3nc(C(=O)NCc3ccc(F)cc3)c(O)c2=O)o1` [Example 17, 6,9-Ethano-4H-pyrido[1,2-a]pyrimidine-2-carboxamide, N-[(4-fluorophenyl)methyl]-6,7,8,9-tetrahydro-3-hydroxy-9-[[(5-methyl-1,3,4-oxadiazol-2-yl)carbonyl]amino]-4-oxo-] and `CN(C)C(=O)C(=O)NC12CCC(CCn3c1nc(C(=O)NCc1ccc(F)cc1)c(O)c3=O)C2` (single isomer, unassigned) [Example 413, Ethanediamide, N′-[2-[[[(4-fluorophenyl)methyl]amino]carbonyl]-7,8,9,10-tetrahydro-3-hydroxy-4-oxo-8,11-methano-4H-pyrimido[1,2-a]azocin-11(6H)-yl]-N,N-dimethyl-] cannot be ordered by IC50: under 10 nM for the first, under 10 nM for the second.

Compared with `CC(=O)N1CC(F)(F)C[C@H]1C(=O)NC12CCC(CC1)Cn1c2nc(C(=O)NCc2ccc(F)c(C)c2)c(O)c1=O` [Example 289, 7,10-Ethanopyrimido[1,2-a]azepine-2-carboxamide, 10-[[[(2S)-1-acetyl-4,4-difluoro-2-pyrrolidinyl]carbonyl]amino]-N-[(4-fluoro-3-methylphenyl)methyl]-4,6,7,8,9,10-hexahydro-3-hydroxy-4-oxo-], `CN(C)C(=O)C(=O)NC12CCC(CC1)Cn1c2nc(C(=O)NCCCc2ccc(Cl)c(Cl)c2)c(O)c1=O` [Example 131, N′-(2-((3-(3,4-Dichlorophenyl)propyl)carbamoyl)-3-hydroxy-4-oxo-6,7,8,9-tetrahydro-7,10-ethanopyrimido[1,2-a]azepin-10(4H)-yl)-N,N-dimethylethanediamide] is higher in IC50: under 10 nM for the first, 10 to 100 nM for the second. The first is the more potent here.

In the case of `CN(C)C(=O)C(=O)NC12CCC(CC1)Cn1c2nc(C(=O)NCC2CC2)c(O)c1=O` [Example 352], the IC50 is reported as over 100 nM.
